From patent US10738018B2, “Compounds for therapeutic use” (Dart NeuroScience, LLC, priority 2016, dated 2020)

Key:
mice = conditions: cited from earlier work
[1] = Conversion of Formula (I) compounds to HNK upon administration to a subject; format: in vivo; conditions: possible two-step process: hydrolysis under acid conditions, then enzymatic conversion by esterase action
Text: In this prophetic example, exemplary compounds of Formula (I) yield HNK upon administration to a subject, such as a patient in a clinical trial, in one or more steps. For example, in one possible pathway illustrated in the following schematic, exemplary compounds of Formula (I) may yield HNK in a two-step process, consisting of hydrolysis in Step 1 under acid conditions, such as those in the stomach, and subsequent enzymatic conversion by esterase action.

| SMILES | antidepressant activity (mice) | conversion to HNK upon administration [1] |
| --- | --- | --- |
| N[C@@]1(c2ccccc2Cl)CCC[C@@H](O)C1=O [(2R,6R)-hydroxynorketamine] | has antidepressant activity | – |
| CC(O)C1=N[C@@]2(c3ccccc3Cl)CCC[C@@H](O1)C2=O (stereo partly drawn) [Example 2, (1R,5R)-5-(2-chlorophenyl)-3-(1-hydroxyethyl)-2-oxa-4 azabicyclo[3.3.1]non-3-en-9-one] | – | may give rise to HNK and lactic acid |
